In publication PMC5842505, “Allosteric Inhibition of Serotonin 5-HT7 Receptors by Zinc Ions” (Molecular Neurobiology, 2017):
Where two headings read alike, the source gives them in different places.

Legend:
human 5-HT7 receptor [1] = target: T1, human 5-HT7 receptor (Homo sapiens, UniProt P34969); experiment: Competition radioligand binding (orthosteric ligands ± Zn2+; Zn2+ titration curves); design: The full-length human 5-HT7b receptor complementary DNA (cDNA); conditions: read-out: IC50 for inhibiting radioligand binding
T1 sequence (P34969 1-432 limits assumed): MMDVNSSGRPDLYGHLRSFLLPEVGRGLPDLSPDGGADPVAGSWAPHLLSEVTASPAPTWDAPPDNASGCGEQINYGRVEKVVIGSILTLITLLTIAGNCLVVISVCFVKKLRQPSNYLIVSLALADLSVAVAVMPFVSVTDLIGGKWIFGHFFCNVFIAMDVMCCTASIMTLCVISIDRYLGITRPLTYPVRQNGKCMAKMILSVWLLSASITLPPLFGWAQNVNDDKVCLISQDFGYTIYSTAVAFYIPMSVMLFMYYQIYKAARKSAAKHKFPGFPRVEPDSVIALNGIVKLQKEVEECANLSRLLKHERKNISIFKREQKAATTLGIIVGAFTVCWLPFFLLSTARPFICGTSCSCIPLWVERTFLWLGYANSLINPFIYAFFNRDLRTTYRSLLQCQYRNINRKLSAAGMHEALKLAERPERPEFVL
Method: (§1) Cell pellets were thawed and homogenized in 10 volumes of 50 mM Tris–HCl buffer (pH 7.7) containing 0.1 mM EDTA, using an Ultra Turrax tissue homogenizer. The pellets were centrifuged twice at 35,000×g for 20 min at 4 °C, with 15-min incubation at 37 °C between centrifugations. The pellets were then resuspended in the incubation buffer as described below for the radioligand binding assays. The membrane protein concentrations were determined using the Pierce™ Coomassie (Bradford) Protein Assay Kit (Thermo Fisher Scientific, Waltham, USA), with bovine serum albumin (BSA) as the standard.
(§2) Data from the saturation (K D), competition binding (K i), and kinetic experiments (koff/offobs) were fitted to a one- or two-site model, and the models were compared using an F test (extra sum-of-squares test).
For the competition binding assay, the affinity constant values (K i) were calculated using the Cheng–Prusoff equation (Eq. 2): […]

5-HT1A receptor = test system: 5-HT1A receptor; design: method as in PMID 26660328; conditions: cited from earlier work
HEK293 cells = conditions: 30-min exposure, MTT and LDH tests
Method: To estimate potential ZnCl2-induced cell death, a colorimetric method was applied in which the amount of formazan salt that had formed after the conversion of lactate to pyruvate followed by the reduction of tetrazolium salt was proportional to the lactate dehydrogenase (LDH) activity in the sample. All procedures were conducted according to the manufacturer’s protocol (Pierce LDH Cytotoxicity Assay Kit, Thermo Fisher Scientific, Waltham, Massachusetts, USA). In brief, the level of LDH released from damaged cells into the culture medium was measured after a 30-min exposure to different concentrations of ZnCl2 in 96-well plates. Cell-free culture supernatants were collected from each well and incubated with the appropriate substrate mix at RT for 30 min. The intensity of the red color formed in the assay and measured at a wavelength of 490 nm was proportional to the LDH activity and the number of damaged cells. The data were normalized to the activity of LDH released from lysis buffer-treated cells (100%) and expressed as a percent of the total ± SEM from three separate experiments.
The yellow tetrazolium 3-(4,5-dimethylthiazolyl-2)-2,5-diphenyltetrazolium bromide (MTT) is reduced by metabolically active cells, by the action of dehydrogenase enzymes, generating NADH and NADPH. The resulting intracellular purple formazan is then solubilized and quantified by spectrophotometry. […]

human 5-HT7 receptor [2] = target: T1, human 5-HT7 receptor; experiment: Saturation radioligand binding in the absence and presence of Zn2+; design: The full-length human 5-HT7b receptor complementary DNA (cDNA); conditions: non-linear regression, Eq. 1
Method: (§3) HEK293 cells stably expressing the human 5-HT7b receptor were grown in Dulbecco’s Modified Eagle’s Medium (DMEM) (Lonza, Basel, Switzerland) supplemented with 10% dialyzed fetal bovine serum (FBS) (Lonza) and 500 μg/ml G418 sulfate (Sigma-Aldrich) at 37 °C in a humidified atmosphere with 5% CO2. For the membrane preparations, the cells were sub-cultured in 150-cm^2 flasks, grown to 90% confluence, washed twice with phosphate-buffered saline (PBS) pre-warmed to 37 °C, and pelleted by centrifugation (200×g for 5 min) in PBS containing 0.1 mM ethylenediaminetetraacetic acid (EDTA) and 1 mM dithiothreitol (DTT). Prior to the membrane preparation, the pellets were frozen at −80 °C. For the functional experiments, the cells were sub-cultured in 75-cm^2 flasks, grown to 90% confluence, washed twice with PBS pre-warmed to 37 °C, and pelleted by centrifugation (180×g) in PBS containing 0.5 mM EDTA. The supernatant was aspirated, and the cell pellet was resuspended in stimulation buffer (1× HBSS, 5 mM HEPES, 0.5 mM IBMX, 0.1% BSA).
as §1, §2

human 5-HT7b receptor = target: T2, human 5-HT7b receptor (Homo sapiens, UniProt P34969); experiment: LANCE cAMP functional assay in HEK293 cells expressing the 5-HT7 receptor; format: cell-based; conditions: for effect on constitutive (unstimulated cAMP) activity: constitutively active 5-HT7 HEK293 cell line; for K B: antagonist vs 10 nM 5-CT
T2 construct: The full-length human 5-HT7b receptor complementary DNA (cDNA)
T2 sequence (P34969 1-432 limits assumed): as above
Method: as §3
Each compound was tested at eight concentrations ranging from 0.01 nM to 100 μM. The total level of cAMP was measured using the LANCE cAMP detection kit (PerkinElmer) according to the manufacturer’s recommendations. To quantify the cAMP levels, 200 or 1000 (for measuring constitutive activity) cells/well (5 μl) were incubated with compounds (5 μl) for 30 min at room temperature in a 384-well white opaque microtiter plate. After incubation, 10 μl of the working solution (5 μl Eu-cAMP and 5 μl ULight-anti-cAMP) was added to induce cell lysis and terminate the reaction. The assay plate was incubated for 1 h at room temperature. The time-resolved fluorescence resonance energy transfer (TR-FRET) signal was detected using an Infinite M1000 PRO (Tecan, Männedorf, Switzerland) with instrument settings from the LANCE cAMP detection kit manual.
The derivation of the Cheng–Prusoff equation was applied for the analysis of antagonist functional inhibition curves

human 5-HT7 receptor [3] = target: T1, human 5-HT7 receptor; experiment: Screen of monovalent and divalent cations on radioligand binding; conditions: for decrease in radioligand binding relative to the control: higher cation concentration (5 mM)
Method: Non-specific binding was defined by the binding obtained in the presence of 10 μM 5-HT. The incubation buffer consisted of 50 mM Tris–HCl (pH 7.7), 4 mM MgCl2, 10 μM pargyline, and 0.1% ascorbic acid. The binding reactions were stopped by filtration through GF/B UniFilter plates using a harvester (PerkinElmer). The plate filters were then dried, and 20 μl of Ultima Gold MV (PerkinElmer) was added. Radioactivity was measured using a MicroBeta TriLux counter (PerkinElmer).
Initially, different monovalent and divalent cations (Na^+, K^+, Mg^2+, Ca^2+, and Zn^2+) were screened at concentrations of 500 μM and 5 mM to assess whether they had any effects on the 5-HT7 receptor (Fig. 1).
The binding of radioligands in the absence of the tested cations is referred to as basal specific binding and was set to 100% (dotted line)

muscarinic M2 receptor = test system: muscarinic M2 receptor; design: method as in PMID 17009927; conditions: cited from earlier work
[4] = cation at both concentrations, 500 μM and 5 mM

[Cl-].[Cl-].[Zn+2] [Zn^2+, ZnCl2]
IC50 (human 5-HT7 receptor [1]; vs [3H]5-CT at fixed concentration (≤K D)): 346 µM | IC50 (human 5-HT7 receptor [1]; vs [3H]SB-269970 at fixed concentration (≤K D)): 1170 µM | IC50 (human 5-HT7 receptor [1]; vs [3H]mesulergine at fixed concentration (≤K D)): 241 µM | effect on agonist binding (5-HT1A receptor; Zn2+ 10 μM): potentiation | effect on agonist binding (5-HT1A receptor; Zn2+ 500 μM): inhibition | concentration not affecting the number of living cells (HEK293 cells): ≤ 200 µM | cooperativity factor α (human 5-HT7 receptor [2]; vs [3H]5-CT binding): 0.15 | cooperativity factor α (human 5-HT7 receptor [2]; vs [3H]SB-269970 binding): 0.06 | cooperativity factor α (human 5-HT7 receptor [2]; vs [3H]mesulergine binding): 0.25 | effect on constitutive (unstimulated cAMP) activity (human 5-HT7b receptor): no influence | functional profile (human 5-HT7b receptor; zinc concentration up to 10 μM): weak neutral antagonist | effect on the level of [3H]SB-269970 binding (human 5-HT7 receptor [3]; cation 500 μM): did not influence | reduction of [3H]5-CT binding (human 5-HT7 receptor [3]; cation 500 μM): 67% | reduction of [3H]mesulergine binding (human 5-HT7 receptor [3]; cation 500 μM): 55% | decrease in radioligand binding relative to the control (human 5-HT7 receptor [3]): up to 90%

[Ca+2] [Ca^2+]
effect on the binding of the three tested radioligands (human 5-HT7 receptor [3]; cation 500 μM): did not alter | decrease in radioligand binding relative to the control (human 5-HT7 receptor [3]): 10 to 20%

[Mg+2] [Mg^2+]
effect on the binding of the three tested radioligands (human 5-HT7 receptor [3]; cation 500 μM): did not alter | decrease in radioligand binding relative to the control (human 5-HT7 receptor [3]): 10 to 20%

[K+] [K^+]
effect on the binding of the three tested radioligands (human 5-HT7 receptor [3]; [4]): did not alter

CN1C[C@@H](NS(=O)(=O)N(C)C)C[C@@H]2c3cccc4c3c(cn4C)C[C@H]21 [Mesulergine, mesulergine]
K B (human 5-HT7b receptor; Zn2+ 0 μM): 31.05 ± 7.51 nM | K B (human 5-HT7b receptor; Zn2+ 0 μM, listed as mesulergine): 31 nM | K B (human 5-HT7b receptor; Zn2+ 10 μM): 37.15 ± 6.86 nM | effect on constitutive (unstimulated cAMP) activity (human 5-HT7b receptor): inverse agonistic properties

[Na+] [Na^+]
effect on the binding of the three tested radioligands (human 5-HT7 receptor [3]; [4]): did not alter

C=CC[N@@+]12CC[C@@]34c5ccccc5N5/C=C6/[C@H]7C[C@H]8[C@@]9(CC[N@@+]8(CC=C)C/C7=C/CO)c7ccccc7N(/C=C(/[C@@H](C[C@@H]31)/C(=C\CO)C2)[C@H]54)[C@@H]69 [alcuronium]
change in the affinity of acetylcholine (fold) (muscarinic M2 receptor): 10 fold | change in the affinity of arecoline (fold) (muscarinic M2 receptor): 1.7 fold
